In brackets after ≈: the same amount, converted by molar mass.
Key:
Format in all cases: cell-based
[1] = test system: Pseudomonas aeruginosa 9027; test: In vitro antibacterial activity (MIC), agar dilution; settings: 2-fold agar dilution, Muller-Hinton agar, 18 hours at 37° C., read-out: minimum inhibitory concentration (MIC)
Method: (§1) 10^7 cfu/ml of bacteria were inoculated and cultured for 18 hours at 37° C. and then the antibacterial activities were measured. For the methicillin resistant strains the activities were measured after 48 hours of cultivation at 30° C. Hoechst Standard strains were used for the testings.

[2] = test system: Pseudomonas aeruginosa 1592E; test: as above; settings: 2-fold agar dilution, Muller-Hinton agar, 18 hours at 37° C., read-out: minimum inhibitory concentration (MIC)
Method: as §1

[3] = test system: Streptococcus faecium MD 8b; test: as above; settings: Enterococcus faecium, MD8B, 2-fold agar dilution, Muller-Hinton agar, 18 hours at 37° C., read-out: minimum inhibitory concentration (MIC)
Method: as §1

Salmonella typhimurium = test: as above; settings: Salmonella enterica, 2-fold agar dilution, Muller-Hinton agar, 18 hours at 37° C., read-out: minimum inhibitory concentration (MIC)
Method: as §1

Enterobacter clocae P99 = test: as above; settings: 2-fold agar dilution, Muller-Hinton agar, 18 hours at 37° C., read-out: minimum inhibitory concentration (MIC)
Method: as §1

[4] = test system: Pseudomonas aeruginosa 1771M; test: as above; settings: Pseudomonas aeruginosa, 1771M, 18 h, read-out: minimum inhibitory concentration (MIC)
Method: as §1

[5] = test system: Klebsiella aerogenes 1522E; test: as above; settings: 2-fold agar dilution, Muller-Hinton agar, 18 hours at 37° C., read-out: minimum inhibitory concentration (MIC)
Method: as §1

Esherichia coli TEM = test: as above; settings: 2-fold agar dilution, Muller-Hinton agar, 18 hours at 37° C., read-out: minimum inhibitory concentration (MIC)
Method: as §1

Esherichia coli DC0 = test: as above; settings: 2-fold agar dilution, Muller-Hinton agar, 18 hours at 37° C., read-out: minimum inhibitory concentration (MIC)
Method: as §1

[6] = test system: Staphylococcus aureus 285; test: as above; settings: 2-fold agar dilution, Muller-Hinton agar, 18 hours at 37° C., read-out: minimum inhibitory concentration (MIC)
Method: as §1

[7] = test system: Streptococcus pyogens 308A; test: as above; settings: 2-fold agar dilution, Muller-Hinton agar, 18 hours at 37° C., read-out: minimum inhibitory concentration (MIC)
Method: as §1

Esherichia coli 078 = test: as above; settings: 2-fold agar dilution, Muller-Hinton agar, 18 hours at 37° C., read-out: minimum inhibitory concentration (MIC)
Method: as §1

[8] = test system: Enterobacter clocae 1321E; test: as above; settings: 2-fold agar dilution, Muller-Hinton agar, 18 hours at 37° C., read-out: minimum inhibitory concentration (MIC)
Method: as §1

[9] = test system: Staphylococcus aureus 503; test: as above; settings: 2-fold agar dilution, Muller-Hinton agar, 18 hours at 37° C., read-out: minimum inhibitory concentration (MIC)
Method: as §1

[10] = test system: Staphylococcus aureus SG511; test: as above; settings: 2-fold agar dilution, Muller-Hinton agar, 18 hours at 37° C., read-out: minimum inhibitory concentration (MIC)
Method: as §1

Klebsiella oxytoca 1082E = test: as above; settings: 2-fold agar dilution, Muller-Hinton agar, 18 hours at 37° C., read-out: minimum inhibitory concentration (MIC)
Method: as §1

[11] = test system: Pseudomonas aeruginosa 1771; test: as above; settings: 2-fold agar dilution, Muller-Hinton agar, 18 hours at 37° C., read-out: minimum inhibitory concentration (MIC)
Method: as §1

[12] = test system: Streptococcus pyogens 77A; test: as above; settings: 2-fold agar dilution, Muller-Hinton agar, 18 hours at 37° C., read-out: minimum inhibitory concentration (MIC)
Method: as §1

Esherichia coli 1507E = test: as above; settings: 2-fold agar dilution, Muller-Hinton agar, 18 hours at 37° C., read-out: minimum inhibitory concentration (MIC)
Method: as §1

[13] = test system: Staphylococcus aureus 703E; test: In vitro antibacterial activity against resistant strains (MIC); settings: resistant strain Staphylococcus aureus 703E; 2-fold agar dilution; methicillin resistant strains 48 hours at 30° C.; read-out: minimum inhibitory concentration (MIC)
Method: as §1

[14] = test system: Staphylococcus aureus 121E; test: as above; settings: resistant strain Staphylococcus aureus 121E; 2-fold agar dilution; methicillin resistant strains 48 hours at 30° C.; read-out: minimum inhibitory concentration (MIC)
Method: as §1

[15] = test system: Staphylococcus aureus 179; test: as above; settings: resistant strain Staphylococcus aureus 179; 2-fold agar dilution; methicillin resistant strains 48 hours at 30° C.; read-out: minimum inhibitory concentration (MIC)
Method: as §1

[16] = test system: Staphylococcus aureus 692E; test: as above; settings: resistant strain Staphylococcus aureus 692E; 2-fold agar dilution; methicillin resistant strains 48 hours at 30° C.; read-out: minimum inhibitory concentration (MIC)
Method: as §1

[17] = test system: Staphylococcus aureus 693E; test: as above; settings: resistant strain Staphylococcus aureus 693E; 2-fold agar dilution; methicillin resistant strains 48 hours at 30° C.; read-out: minimum inhibitory concentration (MIC)
Method: as §1

[18] = test system: Staphylococcus aureus 303; test: as above; settings: resistant strain Staphylococcus aureus 303; 2-fold agar dilution; methicillin resistant strains 48 hours at 30° C.; read-out: minimum inhibitory concentration (MIC)
Method: as §1

[19] = test system: Staphylococcus aureus 8236; test: as above; settings: resistant strain Staphylococcus aureus 8236; 2-fold agar dilution; methicillin resistant strains 48 hours at 30° C.; read-out: minimum inhibitory concentration (MIC)
Method: as §1

[20] = test system: Staphylococcus aureus 241; test: as above; settings: resistant strain Staphylococcus aureus 241; 2-fold agar dilution; methicillin resistant strains 48 hours at 30° C.; read-out: minimum inhibitory concentration (MIC)
Method: as §1

[21] = test system: Staphylococcus aureus 88E; test: as above; settings: resistant strain Staphylococcus aureus 88E; 2-fold agar dilution; methicillin resistant strains 48 hours at 30° C.; read-out: minimum inhibitory concentration (MIC)
Method: as §1

[22] = test system: Staphylococcus aureus 208E; test: as above; settings: resistant strain Staphylococcus aureus 208E; 2-fold agar dilution; methicillin resistant strains 48 hours at 30° C.; read-out: minimum inhibitory concentration (MIC)
Method: as §1

[23] = test system: Staphylococcus aureus 256E; test: as above; settings: resistant strain Staphylococcus aureus 256E; 2-fold agar dilution; methicillin resistant strains 48 hours at 30° C.; read-out: minimum inhibitory concentration (MIC)
Method: as §1

[24] = test system: Staphylococcus aureus 293; test: as above; settings: resistant strain Staphylococcus aureus 293; 2-fold agar dilution; methicillin resistant strains 48 hours at 30° C.; read-out: minimum inhibitory concentration (MIC)
Method: as §1

[25] = test system: Staphylococcus aureus 695E; test: as above; settings: resistant strain Staphylococcus aureus 695E; 2-fold agar dilution; methicillin resistant strains 48 hours at 30° C.; read-out: minimum inhibitory concentration (MIC)
Method: as §1

[26] = test system: Staphylococcus epidermidis 178; test: as above; settings: resistant strain Staphylococcus epidermidis 178; 2-fold agar dilution; methicillin resistant strains 48 hours at 30° C.; read-out: minimum inhibitory concentration (MIC)
Method: as §1

[27] = test system: Staphylococcus aureus 701E; test: as above; settings: resistant strain Staphylococcus aureus 701E; 2-fold agar dilution; methicillin resistant strains 48 hours at 30° C.; read-out: minimum inhibitory concentration (MIC)
Method: as §1

[28] = test system: Staphylococcus aureus 697E; test: as above; settings: resistant strain Staphylococcus aureus 697E; 2-fold agar dilution; methicillin resistant strains 48 hours at 30° C.; read-out: minimum inhibitory concentration (MIC)
Method: as §1

[29] = test system: Staphylococcus epidermidis 291; test: as above; settings: resistant strain Staphylococcus epidermidis 291; 2-fold agar dilution; methicillin resistant strains 48 hours at 30° C.; read-out: minimum inhibitory concentration (MIC)
Method: as §1

[30] = test system: Staphylococcus aureus 690E; test: as above; settings: resistant strain Staphylococcus aureus 690E; 2-fold agar dilution; methicillin resistant strains 48 hours at 30° C.; read-out: minimum inhibitory concentration (MIC)
Method: as §1

[31] = test system: Staphylococcus aureus 694E; test: as above; settings: resistant strain Staphylococcus aureus 694E; 2-fold agar dilution; methicillin resistant strains 48 hours at 30° C.; read-out: minimum inhibitory concentration (MIC)
Method: as §1

Structure (SMILES) | MIC [1] [µg/mL] | MIC [2] [µg/mL] | MIC [3] [µg/mL] | MIC (Salmonella typhimurium) [µg/mL] | MIC (Enterobacter clocae P99) [µg/mL] | MIC [4] [µg/mL] | MIC [5] [µg/mL] | MIC (Esherichia coli TEM) [µg/mL] | MIC (Esherichia coli DC0) [µg/mL] | MIC [6] [µg/mL] | MIC [7] [µg/mL] | MIC (Esherichia coli 078) [µg/mL] | MIC [8] [µg/mL] | MIC [9] [µg/mL] | MIC [10] [µg/mL] | MIC (Klebsiella oxytoca 1082E) [µg/mL] | MIC [11] [µg/mL] | MIC [12] [µg/mL] | MIC (Esherichia coli 1507E) [µg/mL] | also measured
CON=C1CN(c2nc3c(cc2F)c(=O)c(C(=O)O)cn3C2CC2)CC12CNC2.CS(=O)(=O)O [Example 1, 1-Cyclopropyl-6-fluoro-7-[8-(methoxyimino)-2,6-diazaspiro[3,4]oct-6-yl]-4-oxo-1,4-dihydro[1,8]naphthyridine-3-carboxylic acid methanesulfonate] | 0.781 | 0.391 | 0.049 | 0.013 | 0.025 | 0.391 | 0.049 | 0.025 | 0.195 | 0.025 | 0.098 | 0.013 | 0.013 | 0.025 | 0.007 | 0.004 | 0.391 | 0.007 | 0.025 | MIC [13]: 0.049 µg/mL; MIC [14]: 0.049 µg/mL; MIC [15]: 0.781 µg/mL; MIC [16]: 0.025 µg/mL; MIC [17]: 0.049 µg/mL; MIC [18]: 0.781 µg/mL; MIC [19]: 0.781 µg/mL; MIC [20]: 0.781 µg/mL; MIC [21]: 0.049 µg/mL; MIC [22]: 0.049 µg/mL; MIC [23]: 0.025 µg/mL; MIC [24]: 0.781 µg/mL; MIC [25]: 0.049 µg/mL; MIC [26]: 1.56 µg/mL; MIC [27]: 0.049 µg/mL; MIC [28]: 0.013 µg/mL; MIC [29]: 1.56 µg/mL; MIC [30]: 0.025 µg/mL; MIC [31]: 0.049 µg/mL
CON=C1CN(c2c(F)cc3c(=O)c(C(=O)O)cn(C4CC4)c3c2Cl)CC12CNC2 [Example 4, 1-Cyclopropyl-6-fluoro-8-chloro-7-[8-(methoxyimino)-2,6-diazaspiro[3,4]oct-6-yl]-4-oxo-1,4-dihydro-3-quinolinecarboxylic acid] | 0.781 (≈ 1.8 µM) | 0.781 (≈ 1.8 µM) | 0.098 (≈ 0.225 µM) | 0.025 (≈ 0.0575 µM) | 0.049 (≈ 0.113 µM) | 0.391 (≈ 0.899 µM) | 0.098 (≈ 0.225 µM) | 0.049 (≈ 0.113 µM) | 0.391 (≈ 0.899 µM) | 0.049 (≈ 0.113 µM) | 0.195 (≈ 0.448 µM) | 0.025 (≈ 0.0575 µM) | 0.025 (≈ 0.0575 µM) | 0.025 (≈ 0.0575 µM) | 0.013 (≈ 0.0299 µM) | 0.004 (≈ 0.0092 µM) | 0.781 (≈ 1.8 µM) | 0.013 (≈ 0.0299 µM) | 0.049 (≈ 0.113 µM) | –

— patent US6552196B2, “Quinolone carboxylic acid derivatives” (Dong Wha Pharmaceutical Industrial Co., Ltd., priority 1997, dated 2003)
